Results from US6355799B1, “Substituted benzene compounds, process for their preparation, and herbicidal and defoliant compositions containing them” (ISK Americas Incorporated, priority 1997, dated 2002).

Assays:
Assay type in all cases: in vivo
[1] = tested on: upland rice (Oryza sp., var. Tebonnet, RICE); assay: Post-emerge test, crop safety; settings: phytotoxicity rating 0-100 (0 no damage, 100 complete death), 14 days after application
Outline: (§1)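 Compounds in acetone were track-sprayed at 187 l/ha, 15–1000 g ai/ha, onto sandy loam pots. Pre-emerge seeds were sown one day before spraying, with surface watering afterwards. Post-emerge plants were at the 2–3 leaf stage and sprayed with 0.25% v/v non-ionic surfactant. Injury was rated 0–100 at 14 days.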

[2] = tested on: field corn (Zea mays L., var. Dekalb 535, CORN); assay: Post-emerge test, crop safety; settings: phytotoxicity rating 0-100 (0 no damage, 100 complete death), 14 days after application
Outline: as §1

[3] = tested on: redroot pigweed (Amaranthus retroflexus, AMARE); assay: Pre-emerge test, greenhouse herbicide activity screening; settings: pre-emerge, rated 14 days after application, 0 = no damage, 100 = complete death
Outline: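 Herbicidal damage is scored 0 (none) to 100 (complete plant death) two weeks after a simulated field spray. Rates span 15–1000 g ai/ha, delivered in acetone at 187 l/ha. For post-emergence treatments, plants have 2–3 leaves and the spray carries 0.25% v/v non-ionic surfactant.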

[4] = tested on: green foxtail (Setaria viridis, SETVI); assay: Post-emerge test, greenhouse herbicide activity screening; settings: phytotoxicity rating 0-100 (0 no damage, 100 complete death), 14 days after application
Outline: as §1

[5] = tested on: large crabgrass (Digitaria sanguinalis, DIGSA); assay: as above; settings: phytotoxicity rating 0-100 (0 no damage, 100 complete death), 14 days after application
Outline: as §1

[6] = tested on: barnyardgrass (Echinochloa crus-galli, ECHCG); assay: as above; settings: phytotoxicity rating 0-100 (0 no damage, 100 complete death), 14 days after application
Outline: as §1

[7] = tested on: ivyleaf morningglory (Ipomoea hederacea, IPOHE); assay: as above; settings: phytotoxicity rating 0-100 (0 no damage, 100 complete death), 14 days after application
Outline: as §1

[8] = tested on: johnsongrass (Sorghum halepense, SORHA); assay: as above; settings: phytotoxicity rating 0-100 (0 no damage, 100 complete death), 14 days after application
Outline: as §1

[9] = tested on: lambsquarters (Chenopodium album, CHEAL); assay: as above; settings: phytotoxicity rating 0-100 (0 no damage, 100 complete death), 14 days after application
Outline: as §1

[10] = tested on: velvetleaf (Abutilon theophrasti, ABUTH); assay: as above; settings: phytotoxicity rating 0-100 (0 no damage, 100 complete death), 14 days after application
Outline: as §1

[11] = tested on: sicklepod (Cassia obtusifolia, CASOB); assay: as above; settings: phytotoxicity rating 0-100 (0 no damage, 100 complete death), 14 days after application
Outline: as §1

[12] = tested on: redroot pigweed (Amaranthus retroflexus, AMARE); assay: as above; settings: phytotoxicity rating 0-100 (0 no damage, 100 complete death), 14 days after application
Outline: as §1

[13] = tested on: common ragweed (Ambrosia artemisizfolia L., AMBEL); assay: as above; settings: phytotoxicity rating 0-100 (0 no damage, 100 complete death), 14 days after application
Outline: as §1

[14] = tested on: green foxtail (Setaria viridis, SETVI); assay: Pre-emerge test, greenhouse herbicide activity screening; settings: pre-emerge, rated 14 days after application, 0 = no damage, 100 = complete death
Outline: as §1

[15] = tested on: large crabgrass (Digitaria sanguinalis, DIGSA); assay: as above; settings: pre-emerge, rated 14 days after application, 0 = no damage, 100 = complete death
Outline: as §1

[16] = tested on: barnyardgrass (Echinochloa crus-galli, ECHCG); assay: as above; settings: pre-emerge, rated 14 days after application, 0 = no damage, 100 = complete death
Outline: as §1

[17] = tested on: ivyleaf morningglory (Ipomoea hederacea, IPOHE); assay: as above; settings: pre-emerge, rated 14 days after application, 0 = no damage, 100 = complete death
Outline: as §1

[18] = tested on: johnsongrass (Sorghum halepense, SORHA); assay: as above; settings: pre-emerge, rated 14 days after application, 0 = no damage, 100 = complete death
Outline: as §1

[19] = tested on: lambsquarters (Chenopodium album, CHEAL); assay: as above; settings: pre-emerge, rated 14 days after application, 0 = no damage, 100 = complete death
Outline: as §1

[20] = tested on: velvetleaf (Abutilon theophrasti, ABUTH); assay: as above; settings: pre-emerge, rated 14 days after application, 0 = no damage, 100 = complete death
Outline: as §1

[21] = tested on: sicklepod (Cassia obtusifolia, CASOB); assay: as above; settings: pre-emerge, rated 14 days after application, 0 = no damage, 100 = complete death
Outline: as §1

[22] = tested on: common ragweed (Ambrosia artemisizfolia L., AMBEL); assay: as above; settings: pre-emerge, rated 14 days after application, 0 = no damage, 100 = complete death
Outline: as §1

[23] = tested on: upland rice (Oryza sp., var. Tebonnet, RICE); assay: Pre-emerge test, crop safety; settings: pre-emerge, rated 14 days after application, 0 = no damage, 100 = complete death
Outline: (§2)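 Sandy loam pots; pre-emerge: sown 1 d pre-spray, surface-watered after, then bottom-watered. Post-emerge: sown 8–21 d before, 2–3 leaf stage, + 0.25% v/v NIS, bottom-watered. Acetone, 187 l/ha track spray, 15–1000 g ai/ha. 0–100 injury score, day 14.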

[24] = tested on: field corn (Zea mays L., var. Dekalb 535, CORN); assay: Pre-emerge test, crop safety; settings: pre-emerge, rated 14 days after application, 0 = no damage, 100 = complete death
Outline: as §2

COc1c(Cl)cc(F)c(-n2c(=O)cc(C(F)(F)F)n(C)c2=O)c1N(C)C [Compound 1-11, 3-(4-chloro-2-dimehtylainino-6-fluoro-3-methoxyphenyl)-1-methyl-6-trifluoromethyl-2,4(1H, 3H)-pyrimidinedione]
20: Pre-emerge Herbicidal Activity IPOHE (phytotoxicity rating, scale 0-100) ([17]; 63 g ai/ha) | Pre-emerge Herbicidal Activity CASOB (phytotoxicity rating, scale 0-100) ([21]; 63 g ai/ha) | Pre-emerge crop damage RICE (phytotoxicity rating, scale 0-100) ([23]; 63 g ai/ha)
90: Pre-emerge Herbicidal Activity DIGSA (phytotoxicity rating, scale 0-100) ([15]; 63 g ai/ha) | Pre-emerge Herbicidal Activity IPOHE (phytotoxicity rating, scale 0-100) ([17]; 250 g ai/ha) | Pre-emerge Herbicidal Activity SORHA (phytotoxicity rating, scale 0-100) ([18]; 63 g ai/ha)
50: Post-emerge Herbicidal Activity SETVI ([4]; 250 g ai/ha) | Post-emerge Herbicidal Activity CHEAL ([9]; 63 g ai/ha) | Pre-emerge Herbicidal Activity AMBEL (phytotoxicity rating, scale 0-100) ([22]; 63 g ai/ha)
0: Post-emerge Herbicidal Activity RICE (crop damage) ([1]; 63 g ai/ha) | Post-emerge Herbicidal Activity RICE (crop damage) ([1]; 250 g ai/ha) | Post-emerge Herbicidal Activity CORN (crop damage) ([2]; 63 g ai/ha) | Post-emerge Herbicidal Activity CORN (crop damage) ([2]; 250 g ai/ha) | Post-emerge Herbicidal Activity SETVI ([4]; 63 g ai/ha) | Post-emerge Herbicidal Activity DIGSA ([5]; 63 g ai/ha) | Post-emerge Herbicidal Activity DIGSA ([5]; 250 g ai/ha) | Post-emerge Herbicidal Activity ECHCG ([6]; 63 g ai/ha) | Post-emerge Herbicidal Activity ECHCG ([6]; 250 g ai/ha) | Post-emerge Herbicidal Activity SORHA ([8]; 63 g ai/ha) | Post-emerge Herbicidal Activity SORHA ([8]; 250 g ai/ha) | Post-emerge Herbicidal Activity CASOB ([11]; 63 g ai/ha) | Post-emerge Herbicidal Activity CASOB ([11]; 250 g ai/ha) | Pre-emerge Herbicidal Activity ECHCG (phytotoxicity rating, scale 0-100) ([16]; 63 g ai/ha) | Pre-emerge crop damage CORN (phytotoxicity rating, scale 0-100) ([24]; 63 g ai/ha)
80: Pre-emerge Herbicidal Activity SETVI (phytotoxicity rating, scale 0-100) ([14]; 63 g ai/ha)
70: Post-emerge Herbicidal Activity IPOHE ([7]; 250 g ai/ha) | Post-emerge Herbicidal Activity ABUTH ([10]; 63 g ai/ha) | Pre-emerge crop damage RICE (phytotoxicity rating, scale 0-100) ([23]; 250 g ai/ha)
95: Post-emerge Herbicidal Activity CHEAL ([9]; 250 g ai/ha) | Pre-emerge Herbicidal Activity ECHCG (phytotoxicity rating, scale 0-100) ([16]; 250 g ai/ha)
40: Post-emerge Herbicidal Activity IPOHE ([7]; 63 g ai/ha) | Post-emerge Herbicidal Activity AMARE ([12]; 63 g ai/ha)
98: Pre-emerge Herbicidal Activity SORHA (phytotoxicity rating, scale 0-100) ([18]; 250 g ai/ha)
10: Post-emerge Herbicidal Activity AMBEL ([13]; 63 g ai/ha) | Post-emerge Herbicidal Activity AMBEL ([13]; 250 g ai/ha)
60: Post-emerge Herbicidal Activity AMARE ([12]; 250 g ai/ha) | Pre-emerge Herbicidal Activity CASOB (phytotoxicity rating, scale 0-100) ([21]; 250 g ai/ha) | Pre-emerge crop damage CORN (phytotoxicity rating, scale 0-100) ([24]; 250 g ai/ha)
100: Pre-emerge Herbicidal Activity AMARE (phytotoxicity rating, scale 0-100) ([3]; 63 g ai/ha) | Pre-emerge Herbicidal Activity AMARE (phytotoxicity rating, scale 0-100) ([3]; 250 g ai/ha) | Post-emerge Herbicidal Activity ABUTH ([10]; 250 g ai/ha) | Pre-emerge Herbicidal Activity SETVI (phytotoxicity rating, scale 0-100) ([14]; 250 g ai/ha) | Pre-emerge Herbicidal Activity DIGSA (phytotoxicity rating, scale 0-100) ([15]; 250 g ai/ha) | Pre-emerge Herbicidal Activity CHEAL (phytotoxicity rating, scale 0-100) ([19]; 63 g ai/ha) | Pre-emerge Herbicidal Activity CHEAL (phytotoxicity rating, scale 0-100) ([19]; 250 g ai/ha) | Pre-emerge Herbicidal Activity ABUTH (phytotoxicity rating, scale 0-100) ([20]; 63 g ai/ha) | Pre-emerge Herbicidal Activity ABUTH (phytotoxicity rating, scale 0-100) ([20]; 250 g ai/ha) | Pre-emerge Herbicidal Activity AMBEL (phytotoxicity rating, scale 0-100) ([22]; 250 g ai/ha)
